# Patent US12168019B1, “8-hydroxy quinoline derivatives for enhancing telomerase reverse transcriptase (TERT) expression” (Sierra Sciences, Inc., priority 2010, dated 2024)
# Legend:
# [1] = system: human TERT expression (hTERT mRNA transcripts); assay: Quantitative real-time RT-PCR of hTERT mRNA transcripts in compound-treated cells; type: cell-based
# Excerpt: Telomerase is a ribonucleoprotein complex composed of the catalytic protein subunit (human telomerase reverse transcriptase or hTERT) and the RNA template. hTERT expression level can be measured by PCR.
# Quantitative Reverse Transcription PCR can be run according to procedures outlined in Yajima et al. (Yajima, T. et al. Quantitative Reverse Transcription-PCR Assay of the RNA Component of Human Telomerase Using the TaqMan Fluorogenic Detection System Clinical Chemistry, 44:12, 2441-2445, 1998).
# The principle of real-time PCR was first described by Heid et al. (Heid C. A., Stevens J., Livak K. J., Williams P. M. Real time quantitative PCR. Genome Res., 6: 986-994, 1996). Briefly, amplification of the target sequence is monitored per PCR cycle by detecting the fluorescence signal emitted by an internal probe that is degraded by the 5′ nuclease activity of the Taq polymerase. The emission signal accumulates in each sample, and the Ct required to reach a given fluorescence threshold is determined (Ct stands for Cycle Threshold and is a measure of the number of PCR cycles that are required to amplify a target—thus, a lower Ct score means that there is more abundant hTERT mRNA). Thus, the C1 value of a sample inversely correlates to the quantity of the starting cDNA which correlates to the number of mRNA transcripts. Using the cDNA of known quantity, a standard curve can be generated and used to determine the starting amount of mRNA transcripts based on the […] of each sample.
# Quantitative real-time PCR can be done on cDNA from test compound-treated and nontreated cells by use of a ABI Prism 7900 Sequence Detection System (PE Applied Biosystems, Foster City, CA) following the Assays-on-Demand protocol (PE Applied Biosystems, Foster City, CA). Quantitative data can be analyzed using the Sequence Detection System software version 2.1 (PE Applied Biosystems).
# The following compounds were tested in assays designed to identify compounds that enhance human TERT expression. The compounds turned on human TERT expression in these assays.
# viable cells in culture = assay: Cell viability assay (CellTiter-Glo Luminescent Cell Viability Assay, ATP quantitation); type: cell-based; details: percent of DMSO vehicle control
# Protocol: Cell viability is determined using a homogeneous method, such as CellTiter-Glo® Luminescent Cell Viability Assay (Promega Corporation, Madison, WI) to determine the number of viable cells in culture These assays are based on quantitation of the ATP present, which signals the presence of metabolically active cells. Luminescent values of compound treated cells are compared to that of cells treated with vehicle alone to determine the average cell viability as a percent of control.
# Further: test concentration or dose not given here.
Structure (SMILES),Average Number of hTERT Transcripts [1],Average Cell Viability after 24 Hours (% DMSO) (viable cells in culture)
Cc1ccnc(NC(c2ccc([N+](=O)O)cc2)c2ccc3ccc(C)nc3c2O)c1 (stereo not drawn) [Compound 1081],18.87,70.69
Cc1ccc(S(=O)(=O)Nc2ccc(O)c3ncccc23)cc1 [Compound 1091],91.89,94.3
CCCCC(=O)NC(c1ccc2c(c1)OCO2)c1cc([N+](=O)[O-])c2cccnc2c1O (stereo not drawn) [Compound 1046],158.46,78
Oc1c(CN2CCN(c3cccc(Cl)c3)CC2)cc(Br)c2cccnc12 [Compound 1002],14.79,57.7
O=C(NC(c1ccc2c(c1)OCO2)c1cc([N+](=O)[O-])c2cccnc2c1O)C1CCCCC1 (stereo not drawn) [Compound 1068],21.41,61.2
CCC(=O)NC(c1ccc(OC)c(OC)c1)c1cc([N+](=O)[O-])c2cccnc2c1O (stereo not drawn) [Compound 1028],65.66,80.69
CC(=O)NC(c1cccs1)c1cc(Cl)c2cccnc2c1O (stereo not drawn) [Compound 1052],12.07,60.8
Cc1ccnc(NC(c2cccc([N+](=O)O)c2)c2ccc3ccc(C)nc3c2O)c1 (stereo not drawn) [Compound 1084],11.54,65.08
Oc1c(C(Nc2ccccn2)c2ccccc2Br)ccc2cccnc12 (stereo not drawn) [Compound 1007],18.02,68
Oc1c(Cl)cc(Cl)c2cccnc12 [Compound 1020],45.03,25.1
O=C(NC(c1ccc(Cl)cc1)c1ccc2cccnc2c1O)C1CCCCC1 (stereo not drawn) [Compound 1045],13.86,60.3
CCN(CC)c1ccc(C(NC(=O)C(C)C)c2cc(Cl)c3cccnc3c2O)cc1 (stereo not drawn) [Compound 1011],14.2,64.5
CC(=O)NC(c1ccccc1Cl)c1ccc2cccnc2c1O (stereo not drawn) [Compound 1025],113.98,93.5
COc1ccc(C(NC(C)=O)c2cc(Cl)c3cccnc3c2O)cc1OC (stereo not drawn) [Compound 1038],28.95,80.33
CCCCC(=O)NC(c1ccc(O)c(OCC)c1)c1cc([N+](=O)[O-])c2cccnc2c1O (stereo not drawn) [Compound 1075],83.26,82.63
COc1cc(C(Nc2ccccn2)c2ccc3cccnc3c2O)cc(Br)c1OC (stereo not drawn) [Compound 1005],55.17,64.8
CCCOCc1cc(CN2CCCCC2)c(O)c2ncccc12 [Compound 1100],9.12,56.1
O=[N+]([O-])c1cc(CN2CCN(c3ccccc3)CC2)c(O)c2ncccc12 [Compound 1029],5.3,32
Cc1cc(C)n(-c2ccc3c(Cl)cc(Cl)c(O)c3n2)n1 [Compound 1079],98.36,71.22

Structure (SMILES),Average Number of hTERT Transcripts [1],Average Cell Viability after 24 Hours (% DMSO) (viable cells in culture)
Cc1ccc(S(=O)(=O)Nc2cc(S(=O)(=O)c3ccc(C)cc3)c(O)c3ncccc23)cc1 [Compound 1093],160.48,66.5
CC(=O)NC(c1ccc(Br)cc1)c1ccc2cccnc2c1O (stereo not drawn) [Compound 1022],60.01,–
Oc1c(I)cc(I)c2cccnc12 [Compound 1018],105.41,56.9
CC(C)C(=O)NC(c1ccco1)c1ccc2cccnc2c1O (stereo not drawn) [Compound 1087],240.41,–
COc1cccc(C(=O)NC(/C=C/c2ccccc2)c2cc(Cl)c3cccnc3c2O)c1 (stereo not drawn) [Compound 1017],96.98,–
COc1ccc(C(NC(=O)C(C)C)c2cc([N+](=O)[O-])c3cccnc3c2O)cc1 (stereo not drawn) [Compound 1073],103.42,80.1
CCCC(=O)NC(c1ccc(N(C)C)cc1)c1cc(Cl)c2cccnc2c1O (stereo not drawn) [Compound 1066],43.68,–
CCCC(=O)NC(c1ccc(Cl)cc1)c1cc([N+](=O)[O-])c2cccnc2c1O (stereo not drawn) [Compound 1044],92.93,–
CCCCC(=O)NC(c1ccc(OC)cc1)c1cc(Cl)c2cccnc2c1O (stereo not drawn) [Compound 1061],128.91,–
CCCC(=O)NC(c1ccc(C(C)C)cc1)c1cc([N+](=O)[O-])c2cccnc2c1O (stereo not drawn) [Compound 1056],62.15,–
CC(=O)NC(c1ccc(C)cc1)c1ccc2cccnc2c1O (stereo not drawn) [Compound 1024],165.68,–
Oc1c(C(Nc2ccccn2)c2cccc(Cl)c2Cl)ccc2cccnc12 (stereo not drawn) [Compound 1006],25.82,–
Cc1ccc2ccc(C(Nc3ccccn3)c3cccc([N+](=O)[O-])c3)c(O)c2n1 (stereo not drawn) [Compound 1078],36.96,–
Oc1c(C(Nc2ccccc2Cl)c2ccccn2)ccc2cccnc12 (stereo not drawn) [Compound 1095],3.46,–
O=S1(=O)CCC(N2COc3c(cc(Cl)c4cccnc34)C2)C1 (stereo not drawn) [Compound 1107],7.97,–
CCC(=O)NC(/C=C/c1ccccc1)c1cc([N+](=O)[O-])c2cccnc2c1O (stereo not drawn) [Compound 1035],66.72,–
CC(=O)NC(c1ccc(Cl)cc1)c1cc([N+](=O)[O-])c2cccnc2c1O (stereo not drawn) [Compound 1037],55.41,–
Oc1c(Br)cc(Br)c2cccnc12 [Compound 1019],271.75,–
CCCC(=O)NC(c1ccco1)c1cc(Cl)c2cccnc2c1O (stereo not drawn) [Compound 1077],15.88,–
